Results: US6239284A, “Aromatic tetracyclic compounds of the retinoid type method for preparing and use” (priority 1997, dated 2001)

Assays:
AP-1 = assay: Anti-AP-1 effect, MTLN cellular lineage (MCF-7 with (TRE)3-tk-Luc) activated by TPA; assay type: cell-based, human; conditions: 10^-7 M TPA, range of several experiments
Method: The anti-factor AP-1 transrepressor effect of retinoids is determined using the MTLN lineage, coming from MCF-7 cells transfected in a stable fashion by a vector p(TRE)3 -tk-Luc which places the expression of the gene of luciferase under the control of […]. TPA activates the AP-1 complex formed from proteins of the family of nuclear proto-oncogenes (c-Jun and c-Fos). […] The experiments ware made with the MTLN cells activated by 10^-7 M TPA.
The effect of the compounds on the MTLN cells activated by 10^-7 M TPA is expressed as a percentage. […] The inhibitive properties of the products are calculated after deduction of the base activity of the cells. The percentages reported correspond to a range of inhibitions determined from several experiments.

RARα [1] = assay: Transactivation of chimerical receptor GAL4-RARα, transient transfection of HeLa cells (luciferase)
From the text: (§6) Studies of the transactivational specificity of the retinoids have been carried out by transitory transfection of HeLa cells. Two types of chimerical receptors can then be expressed by the cells. […] The C region (domain of bonding to the DNA) and the A and B regions (AF-1 activation domain) are suppressed.
(§7) These chimerical receptors activated by an agonist specifically stimulate the transcription of the gene of the luciferase present in a co-transfected plasmid ((17M)5-βG-Luc) where 17M is the response element of Gal4.

ERE [2] = assay: Anti-estrogenic effect, MELN cellular lineage (MCF-7 with ERE-βGlob-Luc) activated by estradiol; assay type: cell-based, human; conditions: Homo sapiens, read-out: Anti-oestrogenic effect, Inhibition (%)
Method: MCF-7 cells express RARα,γ and RXRα. The transfection of MCF-7 cells by an estrogen-dependent gene (ERE-βGlob-Luc) has permitted the establishment of the MELN cellular lineage, used to determine the anti-oestrogenic activity of the retinoids. These cells contain the gene of the luciferase under the transcriptional control of the promoter of the βGlobine and of the response element ERE isolated from the gene of chicken vitelogenine A2. The experiments are carried out with MELN cells activated by 10^-9 M estradiol. The level of base activity of the MELN cells is obtained with the anti-estrogen 1 μM 4-OH-tamoxifen (hydroxytamoxifen).
The effect of the products tested on the cells activated by 10^-9 M estradiol is expressed as a percentage, the level of base activity being deducted.

RAR [3] = assay: RAR-ERcassette model, specificity profile (transient transfection of HeLa cells); assay type: cell-based
From the text: (§1) The HeLa cells are co-transfected by a plasmid which codes for a retinoic receptor in which the C domain of bonding to the DNA is substituted by that of the receptor to RE estrogens, and a plasmid which places the expression of the luciferase under the control of an ERE (Element of Response to Estrogens). The expressed chimerical receptors are designated as RARα-ERcassette, RARβ-ERcassette, RARγ-ERcassette and RXRα-ERcassette. The A, B, D, E and F regions of the natural receptor are preserved as well as the transcriptional co-operation between the activation domains AF-1 and AF-2. These transitory transfection experiments follow the method of co-precipitation to calcium phosphate. The HeLa cells are co-transfected by […] of plasmid coding for the chimerical receptor, […] of reporter plasmid and […] of expression vector CMV-β-galactosidase used as an internal control of transfection. 24 hours after the transfection, the cells are incubated for 16 hours with the different effectors.
(§2) In this type of chimerical receptor, the C domain of bonding to the DNA of RAR is substituted by that of the receptor to the RE estrogens. The protein obtained is close to the natural RAR receptor and preserves the transcriptional properties of the AF-1 and AF-2 domains. It modulates the transcription by means of an ERE. This RAR-ERcassette model allows one to observe a transcriptional response to a more physiological ligand.
(§3) The study of the selectivity of the compounds was carried out with the RAR-ERcassette chimerical receptors model.

T-47D cells = assay: Anti-proliferation effect, estrogen-induced growth of T-47D cells; assay type: cell-based, human; conditions: Homo sapiens, T47D, 168 h, read-out: T-47D IC50 (growth inhibition by 50%)
Method: (§4) So as to test the anti-proliferation effect of the retinoids, growth experiments under oestrogenic conditions were carried out on cells MCF-7 and T-47D. These are the human estrogen-dependent mammary cancer cells which express the receptor to RE estrogens. The effect of the molecules is evaluated after 7 days of culture in oestrogenic conditions (estradiol 10^-9 M) by dosing the cellular DNA. The cells are distributed in 24 well plates at a density of 2×10^4 cells per well. The tests with the different retinoids are carried out in triplicate and the culture medium is changed after 4 days of growth.
(§5) The effect of the retinoids on the growth of MCF-7 and T-47D cells is evaluated after 7 days of culture in the presence of 10^-9 M estradiol by dosing the cellular DNA.

RARα [4] = assay: Transactivation of chimerical receptor RARα-ERcassette, transient transfection of HeLa cells; assay type: cell-based; conditions: -9 log M; 100% = TTNPB 10^-8 M
From the text: as §1, §2, §3
On one and the same line in the Table, the cis (Z) compound represents the isomeric structure of the trans (E) compound.

MCF-7 cells = assay: Anti-proliferation effect, estrogen-induced growth of MCF-7 cells; assay type: cell-based, human; conditions: Homo sapiens, MCF7, 168 h, read-out: MCF-7 IC50 (growth inhibition by 50%)
Method: as §4, §5

ERE [5] = conditions: cited from earlier work
RARE = assay: HRLN transactivation (stably transfected HeLa, RARE3-tk-Luc, endogenic receptors); assay type: cell-based
From the text: The cellular lineages HRLN and HRL+N allow one to study the activation of an RARE by endogenic receptors using ligands at physiological concentrations. These lineages derive from HeLa cells transfected in a stable fashion by a reporter gene which places the expression of the gene of the luciferase under the control of a nuclear response element RARE (RARE3 -tk-Luc). The HeLa cells express all the known receptors of the retinoic acid (RARα,β,γ and RXRα,β,γ) with a predominance of RARα and RXRα. The response element RARE used for the HRLN cells corresponds to the sequence of the natural gene of the RARβ receptor (GGTTCAnnnnnAGTTCA). The HRL+N cells comprise the sequence GAGTGAnnnnnCGGTGA.

RARβ = assay: Transactivation of chimerical receptor GAL4-RARβ, transient transfection of HeLa cells (luciferase)
From the text: as §6, §7

RAR [6] = assay: GAL-RAR model, specificity profile (transient transfection of HeLa cells)
From the text: as §6, §7

## CC1=C(/C=C/C(C)=C/C=C/C(C)=C/C(=O)O)C(C)(C)CCC1 [ttRA, all trans retinoic acid]
AP-1; -7 log M
  Anti-AP-1 effect, Inhibition (%): 28-44%
AP-1; -8 log M
  Anti-AP-1 effect, Inhibition (%): 22-33%
RARα [1]; Concentration -6 (log M)
  GAL4-RARα activity, % of activity measured for 10^-8 M TTNPB: 108%
RARα [1]; Concentration -7 (log M)
  GAL4-RARα activity, % of activity measured for 10^-8 M TTNPB: 102%
RARα [1]; Concentration -8 (log M)
  GAL4-RARα activity, % of activity measured for 10^-8 M TTNPB: 82%
ERE [2]
  inhibition at 0.1 µM: 35%
RAR [3]
  RAR-ERcassette profile in words: induce an over-expression of luciferase in comparison to the induction brought about by a synthetic compound (TTNPB)
T-47D cells
  IC50: 0.0391 µM
RARα [4]
  RAR-ERcassette RARα transactivation (%): 65%
MCF-7 cells
  IC50: 0.0141 ± 0.0103 µM
ERE [5]
  Effect on cellular growth and expression of estrogen-dependent genes: reduces the cellular growth and the expression of estrogen-dependent genes
RARE
  HRLN transactivation in words: dose-dependent activation
RARE; Homo sapiens, HeLa, concentrations from 1 nM to 1 μM, read-out: HRLN transactivation EC50
  EC50: 0.0025 ± 0.004 µM
RARE; Homo sapiens, HeLa, read-out: HRLN transactivation E max %
  Emax: 208%
RARβ; Concentration -6 (log M)
  GAL4-RARβ activity, % of activity measured for 10^-8 M TTNPB: 92%
RARβ; Concentration -7 (log M)
  GAL4-RARβ activity, % of activity measured for 10^-8 M TTNPB: 93%
RARβ; Concentration -8 (log M)
  GAL4-RARβ activity, % of activity measured for 10^-8 M TTNPB: 104%
RAR [6]
  GAL-RAR agonist profile in words: good RAR agonists
